Results on 16 molecules are retold here after ChEMBL document CHEMBL1909046, “DrugMatrix in vitro pharmacology data”.

pIC50: −log10 of the molar value.

The target in assay [1] is T1, Alpha-2A adrenergic receptor (Homo sapiens, UniProt P08913). Also: in other assays of this panel Not Active means under 50% inhibition at 10 µM.
T1 sequence (P08913 whole entry): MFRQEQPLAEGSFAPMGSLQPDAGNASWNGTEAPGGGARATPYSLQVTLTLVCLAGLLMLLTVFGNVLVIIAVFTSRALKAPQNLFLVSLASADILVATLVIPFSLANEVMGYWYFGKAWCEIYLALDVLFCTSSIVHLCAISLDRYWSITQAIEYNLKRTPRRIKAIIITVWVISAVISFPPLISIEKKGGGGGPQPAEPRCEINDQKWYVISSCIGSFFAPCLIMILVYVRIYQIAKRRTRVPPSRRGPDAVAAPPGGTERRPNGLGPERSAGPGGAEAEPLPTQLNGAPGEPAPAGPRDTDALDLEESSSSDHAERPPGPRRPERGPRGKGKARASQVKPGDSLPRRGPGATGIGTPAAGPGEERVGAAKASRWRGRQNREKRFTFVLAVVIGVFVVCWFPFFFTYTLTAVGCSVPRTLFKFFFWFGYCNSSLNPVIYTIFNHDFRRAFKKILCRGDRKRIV
The assay is classed as cell membranes, Sf9, Membrane. The conditions noted are these: sf9.

Assay [2] concerns the target Beta-3 adrenergic receptor (Homo sapiens, UniProt P13945). In words: DRUGMATRIX: Adrenergic beta3 radioligand binding (ligand: [125I] Cyanopindolol). Particulars: hek293; Not Active = under 50% inhibition at 10 µM. The assay is classed as cell membranes, HEK293, Membrane.
Assay [3] concerns the target T2, Type-2 angiotensin II receptor (Homo sapiens, UniProt P50052). Also: in other assays of this panel Not Active means under 50% inhibition at 10 µM.
T2 sequence (P50052 whole entry): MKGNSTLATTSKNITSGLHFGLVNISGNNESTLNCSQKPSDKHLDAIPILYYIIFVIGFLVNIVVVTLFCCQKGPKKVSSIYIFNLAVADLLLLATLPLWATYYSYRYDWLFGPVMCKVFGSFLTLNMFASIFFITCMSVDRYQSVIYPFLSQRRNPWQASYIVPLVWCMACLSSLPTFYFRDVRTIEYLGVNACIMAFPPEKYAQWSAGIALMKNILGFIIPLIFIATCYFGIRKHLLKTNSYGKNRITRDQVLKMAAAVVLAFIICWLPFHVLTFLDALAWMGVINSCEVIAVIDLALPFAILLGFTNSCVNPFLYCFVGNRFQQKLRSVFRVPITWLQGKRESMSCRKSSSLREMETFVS
The assay is classed as cell-based. The conditions noted are these: cho-k1.

The nature of assay [4]: DRUGMATRIX: GABAA, Flunitrazepam, Central radioligand binding (ligand: [3H] Flunitrazepam). The assay is classed as cell membranes, Rattus norvegicus, Wistar, Brain, Membrane. The conditions noted are these: Not Active = under 50% inhibition at 10 µM.
A short description of assay [5]: DRUGMATRIX: Phosphodiesterase PDE3 enzyme inhibition (substrate: [3H]cAMP + cAMP). It counts as tissue-based, Homo sapiens. The conditions noted are these: platelet, Not Active = under 50% inhibition at 10 µM.
For assay [6], the target named is T3, Receptor-type tyrosine-protein phosphatase C (Homo sapiens, UniProt P08575).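 Also: inhibition of CD45 enzyme activity measured using DiFMUP as substrate; in other assays of this panel Not Active means under 50% inhibition at 10 µM.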
T3 sequence (P08575 whole entry): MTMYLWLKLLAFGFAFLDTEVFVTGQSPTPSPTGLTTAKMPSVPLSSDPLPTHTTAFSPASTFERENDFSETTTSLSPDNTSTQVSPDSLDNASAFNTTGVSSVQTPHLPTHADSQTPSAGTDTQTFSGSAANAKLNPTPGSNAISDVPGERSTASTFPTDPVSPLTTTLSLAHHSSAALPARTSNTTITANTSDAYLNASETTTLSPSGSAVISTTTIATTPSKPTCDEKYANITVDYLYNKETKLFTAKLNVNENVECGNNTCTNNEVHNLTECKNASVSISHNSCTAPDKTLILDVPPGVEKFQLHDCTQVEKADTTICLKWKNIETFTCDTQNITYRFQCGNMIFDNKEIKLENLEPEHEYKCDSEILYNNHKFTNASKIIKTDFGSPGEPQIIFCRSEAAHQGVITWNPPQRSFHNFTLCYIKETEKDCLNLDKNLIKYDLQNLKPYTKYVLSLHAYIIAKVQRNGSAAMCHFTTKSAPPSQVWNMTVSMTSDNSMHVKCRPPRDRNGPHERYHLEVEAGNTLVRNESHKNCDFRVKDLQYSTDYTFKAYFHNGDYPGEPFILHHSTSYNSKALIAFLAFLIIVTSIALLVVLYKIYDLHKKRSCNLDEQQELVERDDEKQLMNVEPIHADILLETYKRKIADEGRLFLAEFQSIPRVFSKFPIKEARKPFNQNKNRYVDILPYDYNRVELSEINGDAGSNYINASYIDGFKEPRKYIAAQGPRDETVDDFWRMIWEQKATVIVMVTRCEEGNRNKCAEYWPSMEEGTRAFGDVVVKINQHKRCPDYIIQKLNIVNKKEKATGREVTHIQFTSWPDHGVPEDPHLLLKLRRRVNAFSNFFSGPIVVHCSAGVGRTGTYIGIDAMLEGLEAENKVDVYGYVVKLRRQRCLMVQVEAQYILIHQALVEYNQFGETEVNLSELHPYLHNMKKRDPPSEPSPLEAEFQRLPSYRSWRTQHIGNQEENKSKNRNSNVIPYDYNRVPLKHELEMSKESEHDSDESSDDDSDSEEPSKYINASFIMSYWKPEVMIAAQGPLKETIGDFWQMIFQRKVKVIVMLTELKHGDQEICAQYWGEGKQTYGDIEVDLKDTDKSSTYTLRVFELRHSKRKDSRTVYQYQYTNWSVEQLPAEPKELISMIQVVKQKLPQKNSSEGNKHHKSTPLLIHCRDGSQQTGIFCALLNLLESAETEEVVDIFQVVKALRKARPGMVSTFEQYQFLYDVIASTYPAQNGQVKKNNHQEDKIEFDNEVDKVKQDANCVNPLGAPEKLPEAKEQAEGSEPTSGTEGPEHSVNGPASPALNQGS
Details: species or system Escherichia coli.

Sequence of Beta-3 adrenergic receptor (P13945 whole entry): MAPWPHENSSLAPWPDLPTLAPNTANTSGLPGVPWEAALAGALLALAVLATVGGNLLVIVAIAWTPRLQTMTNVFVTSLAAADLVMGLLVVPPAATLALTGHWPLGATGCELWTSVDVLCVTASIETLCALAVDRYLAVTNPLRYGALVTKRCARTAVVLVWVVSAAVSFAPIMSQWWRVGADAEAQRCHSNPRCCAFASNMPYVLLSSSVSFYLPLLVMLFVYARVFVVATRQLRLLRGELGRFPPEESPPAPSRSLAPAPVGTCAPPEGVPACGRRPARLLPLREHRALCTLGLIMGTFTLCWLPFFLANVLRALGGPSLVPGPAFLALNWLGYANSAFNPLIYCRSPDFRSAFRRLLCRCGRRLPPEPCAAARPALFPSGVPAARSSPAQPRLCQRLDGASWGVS

With `CC(=O)O[C@]1(C(C)=O)CC[C@H]2[C@@H]3C=C(C)C4=CC(=O)CC[C@]4(C)[C@H]3CC[C@@]21C` [MEGESTROL ACETATE], the IC50 result in assay [1], in assay [2], in assay [3], in assay [4], in assay [5] and in assay [6] was “Not Active” in each case. The Ki entry in assay [4] and in assay [5] was “Not Active” throughout.

Consider `COc1ccccc1OCC(O)COC(N)=O` (stereo unspecified) [METHOCARBAMOL], for which the IC50 entry in assay [1], in assay [2], in assay [3], in assay [4], in assay [5] and in assay [6] was “Not Active” throughout. The Ki entry in assay [4] and in assay [5] was “Not Active” throughout.

For the molecule `CN(Cc1cnc2nc(N)nc(N)c2n1)c1ccc(C(=O)N[C@@H](CCC(=O)O)C(=O)O)cc1` [METHOTREXATE], the IC50 result in assay [1], in assay [2], in assay [3], in assay [4], in assay [5] and in assay [6] was “Not Active” in each case. Besides, the Ki entry in assay [4] and in assay [5] was “Not Active” throughout.

Turning to `COC(=O)c1ccccc1O` [METHYL SALICYLATE], the IC50 entry in assay [1], in assay [2], in assay [3], in assay [4], in assay [5] and in assay [6] was “Not Active” throughout. Also, the Ki result in assay [4] and in assay [5] was “Not Active” each time.

For `COc1ccc2cc(CCC(C)=O)ccc2c1` [NABUMETONE], the IC50 entry in assay [1], in assay [2], in assay [3], in assay [4], in assay [5] and in assay [6] was “Not Active” in each case. Also, the Ki result in assay [4] and in assay [5] was “Not Active” in each case.

With `O=C(O)c1cccnc1` [NIACIN], the IC50 result in assay [1], in assay [2], in assay [3], in assay [4], in assay [5] and in assay [6] was “Not Active” in each case. In addition, the Ki result in assay [4] and in assay [5] was “Not Active” each time.

Consider `CNC(=C[N+](=O)[O-])NCCSCc1csc(CN(C)C)n1` [NIZATIDINE], for which the IC50 entry in assay [1], in assay [2], in assay [3], in assay [4], in assay [5] and in assay [6] was “Not Active” each time. The Ki result in assay [4] and in assay [5] was “Not Active” throughout.

On to `C[C@]12C/C(=C/O)C(=O)C[C@@H]1CC[C@@H]1[C@@H]2CC[C@@]2(C)[C@H]1CC[C@]2(C)O` [OXYMETHOLONE], for which the IC50 result in assay [1], in assay [2], in assay [3], in assay [4], in assay [5] and in assay [6] was “Not Active” each time. For the same molecule, the Ki result in assay [4] and in assay [5] was “Not Active” in each case.

As to `CC(C)(CO)C(O)C(=O)NCCCO` (stereo unspecified) [PANTHENOL], the IC50 entry in assay [1], in assay [2], in assay [3], in assay [4], in assay [5] and in assay [6] was “Not Active” each time. In addition, the Ki result in assay [4] and in assay [5] was “Not Active” throughout.

As for `COc1ccc(Cc2nccc3cc(OC)c(OC)cc23)cc1OC` [PAPAVERINE], the IC50 result in assay [1], in assay [2], in assay [3], in assay [4] and in assay [6] was “Not Active” each time. Further, in assay [4], the Ki result is “Not Active”. In assay [5] (read-out: IC50), the pIC50 was 6.18.

As for `OCCN1CCN(CCCN2c3ccccc3Sc3ccc(Cl)cc32)CC1` [PERPHENAZINE], the IC50 result in assay [1], in assay [2], in assay [3], in assay [4], in assay [5] and in assay [6] was “Not Active” in each case. Also, the Ki result in assay [4] and in assay [5] was “Not Active” each time.

For `CCCCC1C(=O)N(c2ccccc2)N(c2ccccc2)C1=O` [PHENYLBUTAZONE], the IC50 entry in assay [1], in assay [2], in assay [3], in assay [4], in assay [5] and in assay [6] was “Not Active” throughout. Also, the Ki entry in assay [4] and in assay [5] was “Not Active” each time.

For `Cc1cccc(Nc2cc(Cl)nc(SCC(=O)O)n2)c1C` [PIRINIXIC ACID], the IC50 entry in assay [1], in assay [2], in assay [3], in assay [4], in assay [5] and in assay [6] was “Not Active” in each case. In addition, the Ki result in assay [4] and in assay [5] was “Not Active” in each case.

For the molecule `CC[C@H](C)C(=O)O[C@H]1C[C@H](O)C=C2C=C[C@H](C)[C@H](CC[C@@H](O)C[C@@H](O)CC(=O)O)[C@H]21` [PRAVASTATIN], the IC50 result in assay [1], in assay [2], in assay [3], in assay [4], in assay [5] and in assay [6] was “Not Active” throughout. Besides, the Ki entry in assay [4] and in assay [5] was “Not Active” throughout.

On to `CC(C)(Sc1cc(C(C)(C)C)c(O)c(C(C)(C)C)c1)Sc1cc(C(C)(C)C)c(O)c(C(C)(C)C)c1` [PROBUCOL], for which the IC50 result in assay [1], in assay [2], in assay [3], in assay [4], in assay [5] and in assay [6] was “Not Active” each time. Further, the Ki result in assay [4] and in assay [5] was “Not Active” each time.

In the case of COBALT(II) ACETYLACETONATE, the IC50 entry in assay [1], in assay [2], in assay [3], in assay [4], in assay [5] and in assay [6] was “Not Active” each time. The Ki entry in assay [1], in assay [2], in assay [3], in assay [4], in assay [5] and in assay [6] was “Not Active” each time.
